Reference: US10391150B2, “Treatments for migraine and related disorders” (The University of Chicago, priority 2011, dated 2019)
Where two headings read alike, the source gives them in different places.

Columns and labels:
[1] = system: microglia in hippocampal slice cultures; assay type: cell-based, rat
[2] = system: OS from cLTP in hippocampal slice cultures; assay: OS / reactive oxygen species generated from chemical long-term potentiation (cLTP) in slice cultures; assay type: cell-based, rat; details: 3 days treatment (IFN-γ 500 U/mL; IL-11; IGF-1), compared to shams
Experimental: This beneficial effect of low-level IFN-γ is supported by results from rats. In rats, enrichment, which occurs with hippocampal learning, led to a significant elevation in hippocampal T-cells, IFN-γ and MBP.
Experiments were performed in rat hippocampal slices cultures and SD induced as previously described (Pusic et al., 2011). Results were derived from n≥3-6/group. […] This is consistent with the neural activity increase seen after SD, which mimics the hyperexcitability evident in migraine patients.
This prompted the inventors to examine whether insulin could reduce SD susceptibility by increasing CA3 pyramidal neuron bursting. The inventors induced SD trans-synaptically in rat HSC using electrical stimuli (100 μs pulses @ 10 Hz for 1 s) ranging from 1 to 10,000 nC in order to determine SD threshold in sham and experimental groups (Pusic et al., 2011). Results were based on n≥3-6/group. […] This insulin dose approximates the pharmacological levels seen in humans treated with nasal insulin. […] The inventors hypothesized that the effect of insulin occurred through IGF-1 receptor cross-talk.
The inventors use a well-accepted method for inducing cLTP in slice cultures (Kraig et al., 2010; Otmakhov et al., 2004a; Otmakhov et al., 2004b; Kopec et al., 2006). The protocol consists of raising cAMP levels and increasing synaptic activity using rolipram/forskolin applied in a Mg^2+-free Ringer's solution (36° C.) for 5 min, then allowing slices to recover in normal media.

[3] = system: SD in neocortex and hippocampus of anesthetized rat; assay: SD threshold in vivo (0.5 M KCl injection) after nasal administration; details: a day after nasal treatment (IGF-1 150 μg; IL-11 1 μg; IFN-γ 50,000 units); control 1-8 nL
Experimental: Images show experimental setups for nasal administration and testing. (FIG. 7A) Nasal injection setup showing heat lamp and thermo-regulator that maintains temperature at 37° C. plus nose cone used to deliver isoflurane anesthesia. (FIG. 7B) Operator is shown administering nasal IGF-1 solution, which is performed in a fume hood to adequately vent isoflurane from nose cone. (FIG. 7C) Image illustrates standard electrophysiology setup. Anesthetized animal is placed into a standard electrophysiology holder and anesthesia maintained by a nose cone delivering 3% isoflurane in oxygen. Arterial oxygen saturation is monitored with a pulse-oximeter. Animals are warmed to 37.5° C. with a heating plate. SD is induced by progressively injecting larger volumes of 0.5 M KCl from an 8 μm diameter microelectrode. SD is registered with a second microelectrode used for DC recordings placed more caudally. After SD is evoked by a given injection pulse, the stimulating electrode is withdrawn and a volume re-injected under mineral oil. The diameter of the resultant KCl injection sphere is then measured off line using a compound microscope and the injection volume calculated. For example, in the above whole animal experiments it took 1-8 nL of 0.5 M KCl to evoke SD in control brain regions while after acute IGF-1 this amount rose to 67-109 nL. A day after IGF-1 treatment the volume needed to evoked SD was 34-48 nL. IFN-γ treatment required 338 nL of 0.5 M KCl a day after treatment and IL-11 required 67-200 nL.
Rats (FIGS. 6 and 7) are anesthetized with inhalational isoflurane and kept warm. While anesthetized, animals are placed in a supine position and 50 μL of sterile drug (i.e., IFN-γ, IGF-1, or IL-11) solution [or sterile saline vehicle (sham control)] is administered nasally by delivering 5 μL alternating between the left and right naris every 2 min over 20 minutes. Animals are given nasal drug treatments daily at the same time for 7 days before subsequent experiments. Doses for all 3 agents begin with the effective doses noted in our work using slice cultures (1×), then include others (0.1× and 10×). The inventors base this strategy on the fact that the effective culture dose for IGF-1 (40 ng/mL) closely approximates the dose used in vivo (143 μg/kg).
This approach was applied to measurement of SD threshold (FIG. 10) after treatment (FIG. 7) with nasally administered IGF-1 (150 μg), IL-11 (1 μg), IFN-γ (50,000 units), and insulin (20 μg). […] Resistance against SD was always greater in hippocampus compared to neocortex (n=4, controls; n=3, acutely after IGF-1; n=6, one day after IGF-1; n=6, one day after IL-11; n=6, one day after IFN-γ; and n=3, acutely after insulin).
Nasal administration followed by SD threshold evaluation in vivo. Vehicle or human recombinant IGF-1 (150 μg) is administered intranasally. SD threshold is established by injection of nanoliter volumes of 0.5 M KCl into neocortex or hippocampus (−2.0 mm from Bregma and 1.5 mm lateral from midline at either 750 μm or 2,800 μm into brain, respectively) using a thin-walled glass pipette and Picospritzer. Once a threshold is established, it is confirmed two more times, with an exemplary record from a vehicle-sham animal shown below. […] The diameter of the injected sphere is then measured using a compound microscope and used to calculate the injected volume, then moles of potassium. […]

NC1=N[C@H](O)[C@H]2[C@H]3O[C@]4(O)O[C@@H]([C@@H](O)[C@@]2(N1)[C@@H]4O)[C@]3(O)CO [TTX, tetrodotoxin]
number of microglia moving long distances [1]: significantly increased the number of microglia moving long distances

lipopolyssacharide [LPS]
number of microglia moving long distances ([1]; slice cultures, vital imaging): significantly decreased the number of microglia moving long distances

B1: Interleukin 11 (protein, listed as Homo sapiens)
chain: MNCVCRLVLVVLSLWPDTAVAPGPPPGPPRVSPDPRAELDSTVLLTRSLLADTRQLAAQLRDKFPADGDHNLDSLPTLAMSAGALGALQLPGVLTRLRADLLSYLRHVQWLRRAGGSSLKTLEPELGTLQARLDRLLRRLQLLMSRLALPQPPPDPPAPPLAPPSSAWGGIRAAHAILGGLHLTLDWAVRGLLLLKTRL
OS / reactive oxygen species generated from cLTP [2]: significantly reduced OS
volume of 0.5 M KCl needed to evoke SD [3]: 67 to 200 nL
